Assays:
[1] = tested on: leukocyte cells (mono and polymorphonuclear) in co-culture with cells isolated from primary human tumors; test: Marker expression (IHC) in leukocytes co-cultured with primary human tumor cells (colon, pancreatic, lung carcinoma, glioma, melanoma); format: cell-based; settings: SP 1 μM + antagonist 1 μM;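 note: tumor cells and leukocytes came from the same patients, co-culture contents were paraffin-embedded for immunohistochemistry with antibodies to TGF-β2 or NF-kB, leukocytes cultured alone served as control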
Method: To check that the interaction of the human primary tumor cells with cells of the immune/inflammatory (mono and polymorphonuclear leukocytes) cells, stimulates the secretion of substances of importance for survival and tumor progression, cultures were carried out using sets of immune cells/inflammatory (mono and polymorphonuclear leukocytes) with tumor cells obtained directly from primary human tumors of the same patients.
The same method described in Example 7 and 9 was used to obtain tumor cells from primary human tumors. Similarly cultured immune cells/inflammatory (mono and polymorphonuclear leukocytes) were used as control and secondly, cultured tumor cells isolated from patients in the presence of immune cells/inflammatory (mono and polymorphonuclear leukocytes).
Then, paraffin blocks were prepared with the contents of each of the groups mentioned previously for expression studies using immunohistochemistry. On this occasion, in order to identify the secretion of substances with importance for the survival and progression of tumor the following markers were analyzed: TGF-β2 (SAB4502956) and NF-kB (SAB4501992) using specific antibodies against them. All antibodies used were rabbit polyclonal antibodies obtained from Sigma Aldrich and were used at a concentration of 1/1000. Immunohistochemical techniques were performed and evaluated as described in previous examples.

[2] = tested on: fibroblasts (PHF) co-cultured with human melanoma tumor cells (MEL-HO1); test: Marker expression (IHC) in PHF co-cultured with MEL-HO1 tumor cells; format: cell-based; settings: PHF co-cultured with MEL-HO1 + SP + NK1 antagonist;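 note: values are the percentage of fibroblasts positive for each marker, with cultures grown in fresh healthy-donor blood plasma and each experiment run six times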
Method: (§4) All cultures were maintained 48 hours, following which the same cells were included in paraffin blocks for subsequent analysis of the expression of different markers by immunohistochemistry (see Example 1). […] All experiments were carried out sixfold. Analyzed markers in fibroblast cells (stromal cells) were: TGF-α, TGF-β1, TGF-β2, TGF-β3, SPARC, MMP-3, MMP-7, MMP-9, MMP-11, MMP-13 and MMP-14.

[3] = tested on: tumors from the tumor cell lines of Table 9; test: Mean tumor volume in nude mice injected subcutaneously with human tumor cells; settings: 30 mg/kg/day oral, 7 days
[4] = tested on: fibroblasts (PHF) co-cultured with human choriocarcinoma tumor cells (AC-1M32); test: Marker expression (IHC) in PHF co-cultured with AC-1M32 tumor cells; format: cell-based; settings: co-culture with AC-1M32; SP 1 μM + antagonist 1 μM; 48 h;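 note: Read-out is the percentage of PHF fibroblasts positive for each marker, with cells grown in fresh healthy-donor blood plasma, six replicates, reference being fibroblasts cultured alone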
Method: as §4

[5] = tested on: fibroblasts of tumors produced by tumor cell line of human melanoma (MEL HO); test: Marker expression (IHC) in fibroblasts of tumor or peritumoral area, mouse model, MEL HO; format: in vivo; settings: MEL HO tumors in mice, 30 mg/kg/day oral, 7 days
Method: (§1) In vitro tests conducted in Example 5 are now carried out in an experimental model in mice in vivo. […] Subsequently, the expression in fibroblasts tumoral and peritumoral area of molecular markers associated with progression and maintenance of tumors: TGF-α, TGF-β1, TGF-β2, TGF-β3, MMP-7, MMP-11, MMP-14 were analyzed by immunohistochemistry.
(§2) Were injected with 2×10^7 cells tumors (corresponding, in each case to each of the tumor types as specified in Table 9) in 200 of PBS subcutaneously μl. […] Mice were randomized into two groups when the tumors reached a volume of 75 mm^3 One group was treated with non-peptide receptor antagonists NK1 and the other with placebo 200μ1. […] Tumors and samples of non-neoplastic stromal areas remote from the tumor were halved, formalin fixed (4%) and then were included in paraffin blocks for analysis by immunohistochemistry.
(§3) The expression on fibroblast cells obtained in the animal model was analyzed by immunohistochemistry, of the above markers: TGF-α, TGF-β1, TGF-β2, TGF-β3, MMP-7, MMP-1 1, MMP-14MP-14. Tables 32 to 35 depict the type of label used and the average percentage of fibroblasts present in non-tumor areas, tumor and peritumoral (±SD) which were expressing the marker shown in each of the tumor types developed from of the different cell lines used. This process was realized in mice treated with non-peptide antagonists of NK1 receptor and in untreated animals (control).

[6] = tested on: fibroblasts of tumors produced by human rhabdomyosarcoma tumor line (A-204); test: Marker expression (IHC) in fibroblasts of tumor or peritumoral area, mouse model, A-204; format: in vivo; settings: A-204 tumors in mice, 30 mg/kg/day oral, 7 days
Method: as §1, §2, §3

[7] = tested on: fibroblasts (PHF) co-cultivated with tumor cell carcinoma of urinary bladder (5637); test: Marker expression (IHC) in PHF co-cultured with 5637 tumor cells; format: cell-based, human; settings: co-culture with 5637; SP 1 μM + antagonist 1 μM; 48 h
Method: as §4

polymorphonuclear cells = test: Marker expression (immunohistochemistry) in polymorphonuclear blood cells with SP alone or with NK1 antagonists; format: cell-based, human; settings: SP 1 μM + antagonist 1 μM; 48 h
Excerpt: Briefly, heparinized blood from healthy donors was centrifuged so as to separate the various components thereof. Red blood cells remained at the bottom of the tube. Above them was a small white layer composed of the white blood cells and above, on top of the tube, the blood plasma. The layer of white cells was distributed in a culture plate of 24 wells by adding in each the same concentration of blood plasma from the same donor, supplemented with 1% antibiotic-antimycotic (Invitrogen). In each well, approximately 1000 cells (PHF) skin from the dermis were further added, obtained as previously described in Example 2. […] After 48 hours of incubation, cells were collected and embedded in paraffin for expression analysis by immunohistochemical techniques (as described in Example 1).
The expression of TGF molecular markers (anti-TGF 2, SAB4502956) and NF-kB (anti-NF-kB, SAB4501992) using specific antibodies against them were analyzed. All antibodies used were rabbit polyclonal antibodies obtained from Sigma Aldrich and were used at a concentration of 1/1000. All experiments were carried out sixfold.

[8] = co-culture with cells isolated from colon carcinoma
[9] = co-culture with cells isolated from glioma
[10] = co-culture with cells isolated from lung carcinoma
[11] = co-culture with cells isolated from melanoma
[12] = co-culture with cells isolated from pancreatic carcinoma

For `Cc1cc(F)ccc1[C@H]1CNCCN1C(=O)N(C)[C@H](C)c1cc(C(F)(F)F)cc(C(F)(F)F)c1` [Vestipitant], the “Percentage of mononuclear leukocytes cells which expressed NF-kB” value [1, 8] was 0%, the “Percentage of mononuclear leukocytes cells which expressed TGF-β” value [1, 8] was 0% and the “Percentage of polymorphonuclear leukocytes cells which expressed NF-kB” value [1, 8] was 0%. The “Percentage of polymorphonuclear leukocytes cells which expressed TGF-β” value [1, 8] was 0%, the “Percentage of mononuclear leukocytes cells expressing NF-kB” value [1, 9] was 0% and the “Percentage of mononuclear leukocytes cells expressing TGF-β” value [1, 9] was 0%. The “Percentage of polymorphonuclear leukocytes cells expressing NF-kB” value [1, 9] was 0%, the “Percentage of polymorphonuclear leukocytes cells expressing TGF-β” value [1, 9] was 0% and the “Percentage of mononuclear leukocytes cells which expressed NF-kB” value [1, 10] was 0%. For the same compound, the “Percentage of mononuclear leukocytes cells which expressed TGF-β” value [1, 10] was 0%, the “Percentage of polymorphonuclear leukocytes cells which expressed NF-kB” value [1, 10] was 0% and the “Percentage of polymorphonuclear leukocytes cells which expressed TGF-β” value [1, 10] was 0%. For the same compound, the “Percentage of mononuclear leukocytes cells which expressed NF-kB” value [1, 11] was 0%, the “Percentage of mononuclear leukocytes cells which expressed TGF-β” value [1, 11] was 0% and the “Percentage of polymorphonuclear leukocytes cells which expressed NF-kB” value [1, 11] was 0%. The “Percentage of polymorphonuclear leukocytes cells which expressed TGF-β” value [1, 11] was 0%, the “Percentage of mononuclear leukocytes cells which expressed NF-kB” value [1, 12] was 0% and the “Percentage of mononuclear leukocytes cells which expressed TGF-β” value [1, 12] was 0%. For the same compound, the “Percentage of polymorphonuclear leukocytes cells which expressed NF-kB” value [1, 12] was 0%, the “Percentage of polymorphonuclear leukocytes cells which expressed TGF-β” value [1, 12] was 0% and the “cells expressing MMP-3” value [2] was 0%. For the same compound, the “cells expressing MMP-7” value [2] was 0%, the “cells expressing MMP-9” value [2] was 0% and the “cells expressing MMP-11” value [2] was 0%. The “cells expressing MMP-13” value [2] was 0%, the “cells expressing MMP-14” value [2] was 0% and the “cells expressing SPARC” value [2] was 0%. For the same compound, the “cells expressing TGF-α” value [2] was 0%, the “cells expressing TGF-β1” value [2] was 0% and the “cells expressing TGF-β2” value [2] was 0%. The “cells expressing TGF-β3” value [2] was 0%, the Mean tumor volume ([3]; B lymphoblastic leukemia (peripheral human B lymphoblastoid cells) SD1) was 112 ± 8 and the Mean tumor volume ([3]; Carcinoma of human non-small cell lung COR-L23) was 111 ± 3. For the same compound, the Mean tumor volume ([3]; Carcinoma of human non-small cell lung H-1963) was 101 ± 6, the Mean tumor volume ([3]; Carcinoma of human non-small cell lung HCC-44) was 100 ± 4 and the Mean tumor volume ([3]; Carcinoma of human small cell lung H-209) was 113 ± 5. For the same compound, the Mean tumor volume ([3]; Carcinoma of human urinary bladder 5637) was 112 ± 3, the Mean tumor volume ([3]; Human B lymphoma BC-1) was 101 ± 9 and the Mean tumor volume ([3]; Human Burkitt lymphoma CA-46) was 100 ± 19. The Mean tumor volume ([3]; Human Fibrosarcoma HT-1080) was 112 ± 4, the Mean tumor volume ([3]; Human Hodgkin lymphoma KM-H2) was 99 ± 8 and the Mean tumor volume ([3]; Human Rhabdomyosarcoma A-204) was 97 ± 9. It also gave a Mean tumor volume ([3]; Human T-cell leukemia/NK YT) of 101 ± 3, a Mean tumor volume ([3]; Human T-lymphoma DERL human Hodgkin 7Linfoma KM-H2) of 90 ± 9 and a Mean tumor volume ([3]; Human breast adenocarcinoma humano MCF-7) of 78 ± 7. For the same compound, the Mean tumor volume ([3]; Human breast carcinoma MDA-MB-468) was 84 ± 7, the Mean tumor volume ([3]; Human breast carcinoma MT-3) was 78 ± 8 and the Mean tumor volume ([3]; Human choriocarcinoma AC-1M32) was 88 ± 8. The Mean tumor volume ([3]; Human colon carcinoma SW-403) was 78 ± 2, the Mean tumor volume ([3]; Human endometrial carcinoma AN3-CA) was 89 ± 1 and the Mean tumor volume ([3]; Human endometrial stromal sarcoma ESS-1) was 99 ± 3. For the same compound, the Mean tumor volume ([3]; Human folicular thyroid carcinoma TT2609-C02) was 100 ± 4, the Mean tumor volume ([3]; Human gastric adenocarcinoma 23132/87) was 63 ± 8 and the Mean tumor volume ([3]; Human glioma GAMG) was 101 ± 4. The Mean tumor volume ([3]; Human lung carcinoma A-427) was 98 ± 10, the Mean tumor volume ([3]; Human lung carcinoma DV-90) was 136 ± 10 and the Mean tumor volume ([3]; Human lymphoblastic leukemia T BE-13) was 111 ± 4. For the same compound, the Mean tumor volume ([3]; Human malignant fibrous histiocytoma U-2197) was 95 ± 8, the Mean tumor volume ([3]; Human melanoma MEL HO) was 102 ± 4 and the Mean tumor volume ([3]; Human multiple myeloma COLO-677) was 101 ± 4. For the same compound, the Mean tumor volume ([3]; Human neuroblastoma KELLY) was 121 ± 4, the Mean tumor volume ([3]; Human neuroblastoma bone marrow SKN-BE 2) was 101 ± 7 and the Mean tumor volume ([3]; Human osteosarcoma CAL-72) was 104 ± 9. For the same compound, the Mean tumor volume ([3]; Human ovarian adenocarcinoma EFO-27) was 63 ± 7, the Mean tumor volume ([3]; Human ovarian carcinoma COLO-704) was 78 ± 8 and the Mean tumor volume ([3]; Human pancretic adenocarcinoma CAPAN-1) was 85 ± 8. It also gave a Mean tumor volume ([3]; Human pancretic adenocarcinoma PA-TU 8902) of 91 ± 6, a Mean tumor volume ([3]; Human papillary thyroid carcinoma metastasizing B-CPAP) of 102 ± 2 and a Mean tumor volume ([3]; Human prostate carcinoma 22RV1) of 98 ± 2. For the same compound, the Mean tumor volume ([3]; Human retinoblastoma WERI-Rb-1) was 112 ± 8, the Mean tumor volume ([3]; Human thyroid carcinoma 8505C) was 98 ± 9 and the Mean tumor volume ([3]; Human uterine cervix carcinoma KB) was 89 ± 1. It also gave a Mean tumor volume ([3]; Melanoma humano, metástasis en ganglio linfático COLO 858) of 110 ± 4, a Mean tumor volume ([3]; Sarcoma human Edwing MHH-ES-1) of 115 ± 3 and a Mean tumor volume ([3]; Transitional Carcinoma of human urinary bladder RT-4) of 120 ± 3. For the same compound, the “PHF cells expressing MMP-3” value [4] was 0%, the “PHF cells expressing MMP-7” value [4] was 0% and the “PHF cells expressing MMP-9” value [4] was 0%. The “PHF cells expressing MMP-11” value [4] was 0%, the “PHF cells expressing MMP-13” value [4] was 0% and the “PHF cells expressing MMP-14” value [4] was 0%. For the same compound, the “PHF cells expressing SPARC” value [4] was 0%, the “PHF cells expressing TGF-α” value [4] was 0% and the “PHF cells expressing TGF-β1” value [4] was 0%. For the same compound, the “PHF cells expressing TGF-β2” value [4] was 0%, the “PHF cells expressing TGF-β3” value [4] was 0% and the “fibroblasts expressing MMP-7” value [5] was 0%. For the same compound, the “fibroblasts expressing MMP-11” value [5] was 0%, the “fibroblasts expressing MMP-14” value [5] was 0% and the “fibroblasts expressing TGF-α” value [5] was 0%. The “fibroblasts expressing TGF-β 1” value [5] was 0%, the “fibroblasts expressing TGF-β 2” value [5] was 0% and the “fibroblasts expressing TGF-β 3” value [5] was 0%. For the same compound, the “fibroblasts expressing MMP-7” value [6] was 0%, the “fibroblasts expressing MMP-11” value [6] was 0% and the “fibroblasts expressing MMP-14” value [6] was 0%. For the same compound, the “fibroblasts expressing TGF-α” value [6] was 0%, the “fibroblasts expressing TGF-β 1” value [6] was 0% and the “fibroblasts expressing TGF-β 2” value [6] was 0%. For the same compound, the “fibroblasts expressing TGF-β 3” value [6] was 0%, the “PHF cells expressing MMP-3” value [7] was 0% and the “PHF cells expressing MMP-7” value [7] was 0%. For the same compound, the “PHF cells expressing MMP-9” value [7] was 0%, the “PHF cells expressing MMP-11” value [7] was 0% and the “PHF cells expressing MMP-13” value [7] was 0%. For the same compound, the “PHF cells expressing MMP-14” value [7] was 0%, the “PHF cells expressing SPARC” value [7] was 0% and the “PHF cells expressing TGF-α” value [7] was 0%. For the same compound, the “PHF cells expressing TGF-β1” value [7] was 0%, the “PHF cells expressing TGF-β2” value [7] was 0% and the “PHF cells expressing TGF-β3” value [7] was 0%. The “polymorphonuclear cells expressing NF-kB” value (polymorphonuclear cells) was 0% and the “polymorphonuclear cells expressing TGF-β” value (polymorphonuclear cells) was 0%.

Source: US20180071317A1, “USE OF AGENTS THAT ALTER THE PERITUMORAL ENVIRONMENT FOR THE TREATMENT OF CANCER” (SERVICIO ANDALUZ DE SALUD, priority 2011, published 2018)
